Measurements: patent US8530385B2, “Herbicidal formulations for combinations of dimethylamine and potassium salts of glyphosate” (Donaghys Industries Limited, priority 2007, dated 2013)

Conditions: laboratory conditions; fully loaded with surfactant
From the text: Dimethylamine is a flammable gas and generally provided as an aqueous solution at concentrations of about 40%. As such, it is difficult to obtain highly concentrated salts of glyphosate using only DMA solution as starting material.
In contrast to IPA, DMA has a […] flash and boiling point and supplied as 40% solution.

CNC.O=C(O)CNCP(=O)(O)O [DMA glyphosate, dimethylamine salt of glyphosate]
maximum stable fully loaded concentration of glyphosate: 560 gae/L
